From ChEMBL document CHEMBL6087446, “Hypoxia Activated Nitric Oxide Donor Compounds for the Prevention and Treatment of Myocardial Hypoxia-Induced Injury” (J Med Chem, 2025)
The source made the active and inactive calls. The rule behind the calls is not given here.

Columns and labels:
H9c2 [1] = assay: Prevention of hypoxia-induced apoptosis in rat H9c2 cells assessed as decrease in early apoptosis by measuring reduced green fluorescence at 10 uM incubated for 4 hrs by confocal microscopy with Annexin V-FITC and propidium iodide (PI) double staining analysis; type: functional, cell-based
Mus musculus [2] = assay: Prevention of myocardial hypoxia injury in isoproterenol-induced male C57 mouse myocardial injury model assessed as increase in NO level in myocardial tissue at 8 to 16 mg/kg, ip once daily for 3 consecutive days; type: functional, organism-based; conditions: dose 8-16 mg/kg, time 3.0 day
Mus musculus [3] = assay: Prevention of myocardial hypoxia injury in isoproterenol-induced male C57 mouse myocardial injury model assessed as prevention of bundle collagen fiber deposition at 8 to 16 mg/kg, ip once daily for 3 consecutive days by Masson staining based analysis; type: functional, organism-based; conditions: dose 8-16 mg/kg, time 3.0 day
[4] = Tmax in female Balb/c mouse at 8 mg/kg, ip measured up to 24 hrs by LC-MS/MS analysis; type: ADME, organism-based; conditions: in vivo
H9c2 [5] = assay: Induction of NO release in rat H9c2 cells under normoxic condition at 10 uM measured for 4 hrs by Griess reagent assay relative to control; type: functional
[6] = Toxicity in male C57 mouse assessed as adverse effect at 900 mg/kg, ip measured up to 14 days observation period; type: organism-based; conditions: in vivo, 336 h, time < 14 day
Mus musculus [7] = assay: Prevention of myocardial hypoxia injury in isoproterenol-induced male C57 mouse myocardial injury model assessed as antihypertrophic effect at 8 mg/kg, ip once daily for 3 consecutive days; type: functional, organism-based; conditions: time 3.0 day
H9c2 [8] = assay: Prevention of hypoxia-induced apoptosis in rat H9c2 cells assessed as decrease in late apoptosis and necrosis by measuring reduced red fluorescence at 10 uM incubated for 4 hrs by confocal microscopy with Annexin V-FITC and propidium iodide (PI) double staining analysis; type: functional, cell-based
Mus musculus [9] = assay: Prevention of myocardial hypoxia injury in isoproterenol-induced male C57 mouse myocardial injury model assessed as pathological myocardial change by measuring improvement in disorganized cell arrangement at 8 to 16 mg/kg, ip once daily for 3 consecutive days by hematoxylin and eosin staining based analysis; type: functional, organism-based; conditions: dose 8-16 mg/kg, time 3.0 day
Mus musculus [10] = assay: Prevention of myocardial hypoxia injury in isoproterenol-induced male C57 mouse myocardial injury model assessed as reduction in creatine kinase (CK) at 5 mg/kg, ip once daily for 3 consecutive days by immunohistochemistry; type: functional, organism-based; conditions: time 3.0 day
H9c2 [11] = assay: Induction of NO release in rat H9c2 cells under hypoxia condition at 10 uM by Griess reagent assay relative to control; type: functional
Mus musculus [12] = assay: Prevention of myocardial hypoxia injury in isoproterenol-induced male C57 mouse myocardial injury model assessed as heart weight ratio at 8 mg/kg, ip once daily for 3 consecutive days (reference value: 0.60%); type: functional; conditions: time 3 day
[13] = Toxicity in isoproterenol-induced male C57 mouse assessed as body weight change at 8 mg/kg, ip once daily for 3 consecutive days; type: organism-based; conditions: in vivo, 72 h, time 3 day

Structure (SMILES): CN(N=O)c1ccc(OCc2ccc([N+](=O)[O-])c(F)c2)cc1
- Activity (H9c2 [1]): Active; Green Fluorescence Intensity Wes Lower Than Ismn Treated Cells
- Activity (Mus musculus [2]): Active
- Activity (Mus musculus [3]): Active
- Tmax [4]: 2.08 h
- Activity (H9c2 [5]): 20%
- Activity [6]: Non-toxic
- Activity (Mus musculus [7]): Active
- Activity (H9c2 [8]): Active; Reduced Red Fluorescence To Certain Extents
- Activity (Mus musculus [9]): Active
- Activity (Mus musculus [10]): Active
- Activity (H9c2 [11]): 26.54%
- Activity (Mus musculus [12]): 0.54%
- Activity [13]: Non-toxic
